Here are results for 15 compounds from patent US20100125059A1, “1-BIARYLAZETIDINONE DERIVATIVE” (Teijin Pharma Limited, priority 2007, published 2010).

Like-named read-outs stand apart in the source and are kept apart here.

One test deals with Caco-2 cells. Kind of test: Cholesterol absorption inhibition assay (in vitro), [14C] cholesterol mixed micelles. In kind it is cell-based. The conditions noted are these: Homo sapiens, 24 hours, read-out: cholesterol absorption inhibitory activity; for inhibition at 10 µM: concentration of 10 μM. The procedure: This assay measures cholesterol absorption inhibitory activity by adding mixed micelles containing [^14C] cholesterol to cells and measuring cholesterol taken in the cells as oleic acid cholesteryl ester. The assay is conducted after Caco-2 cells are seeded on multi-well plates and cultured (culture medium: DMEM containing 10% fetal bovine serum, 1% non-essential amino acids, 1% penicillin, and 1% streptomycin) for 2 weeks. To each well, the micelle solution (in an amount required to provide the following final concentrations: 600 μM of sodium oleate, 50 μM of phosphatidyl choline, 5 mM of sodium taurocholate, 2.5 μM of cholesterol, and 2.5 μM of [^14C] cholesterol) and a test compound solution (in an amount required to provide the final concentration of 0.5 to 25 μM) or a solvent as a control are added, and incubation is started at 37° C. 24 hours later, the culture medium is removed, and the lipid component is extracted with hexane/2-propanol (3:2, v/v) and applied onto thin-layer silica gel plates. After drying, each plate is eluted with a mixture of hexane, diethyl ether, and acetic acid in a ratio of 83:16:1. The plates are photoexposed on imaging plates and analyzed using BAS-2500 (FUJIFILM). The amounts of light exposure of the areas corresponding to the cholesteryl ester are calculated. Background is measured using a blank space of the plate. Inhibition rates are calculated using values obtained by subtracting the background values from both values of the control and the test sample, respectively, in accordance with the following equation. A test value is calculated as a percentage (%) with respect to the control.
In the Equation 1, A is the control group, BG is a background, and B is the test compound.
The following results were obtained from the measurement by this method on cholesterol absorption inhibitory activity of the compounds of the present invention. The following results were obtained by the evaluation using concentrations of 10 μM and/or 12.5 μM.

Test [1] relates to hamsters fed a high cholesterol diet. Kind of test: Measurement of lipid lowering effect in hamsters fed a high cholesterol diet. Particulars: Mesocricetus auratus, po, 168 h, gavage once daily, 7 days. In kind it is in vivo, Male Golden Syrian hamsters. The procedure: Male Golden Syrian hamsters are divided into groups each consisting of 6 animals and fed a controlled high cholesterol diet (CE-2 containing 0.5% cholesterol; CLEA Japan, Inc.) for 28 days at most. From the start of feeding of the high cholesterol diet, the test compounds are administered by gavage once daily. For the administration, 0.2 mL of corn oil alone per 100 g (control group) or a solution (or suspension) of the test compound in corn oil at a dose of 0.01 to 10 mg/kg was given. At the same time, a group fed with a normal diet during the same study period is handled as a normal group. 4 hours after the last administration, whole blood is collected from the abdominal aorta under light anesthesia with ether and serum is separated from the blood. Further, livers are harvested, wet liver weights are measured, and part (about 0.5 g) of the harvested livers are extracted and weighed. 2-propanol in an amount 4 times the weight of the extracted livers are added, the resulted mixtures are homogenized, and the centrifuged supernatant are recovered and used as liver-derived samples.
Serum and liver TC concentrations are determined by an enzyme method using L-type Wako CHO•H (Wako Pure Chemical Industries Ltd.) or Cholestest CHO (Daiichi Pure Chemicals Co., Ltd.). Serum TG concentrations are determined by an enzyme method using L-type Wako TG•H (Wako Pure Chemical Industries Ltd.) or Autosera S TG-N (Daiichi Pure Chemicals Co., Ltd.) and a free glycerine elimination method. LDL-C concentrations are determined by a direct method using L-type Wako LDL-C•M (Wako Pure Chemical Industries Ltd.) or Cholestest LDL (Daiichi Pure Chemicals Co., Ltd.). Human serum was commonly used as a sample for the calibration curve for determinations of serum and liver TC concentrations, serum TG concentration, and serum LDL-C concentration. The effect of the test compound is shown by a suppression rate (%) of an increase in serum TC concentration due to feeding of the high cholesterol diet, a serum TG lowering rate (%), a suppression rate (%) of an increase in serum LDL-C concentration due to feeding of the high cholesterol diet, and a suppression rate (%) of an increase in liver TC concentration due to feeding of the high cholesterol diet calculated in accordance with the following equations.
In the Equation 2, A is the control group, B is the test compound group, and C is the normal group.
In the Equation 3, A is the control group, B is the test compound group, and C is the normal group.
In the Equation 4, A is the control group, B is the test compound group, and C is the normal group.
In the Equation 5, A is the control group, and B is the test compound group.
The following results were obtained from the study by this method on the effects of lowering serum TC, LDL-C, and TG, and liver TC in the hamsters fed with a high cholesterol diet which were given the test compounds for 7 days.
The compounds in which pyridyl of compound of example 51 and 55 was exchanged for phenyl, were used as comparative compound 1 and 2, respectively. In the same method as Example 112, the suppression rate (%) of an increase in serum TC concentration of comparative compound 1 and 2 were calculated.

[2] abbreviates: read-out: serum TG lowering effect (serum TG lowering rate).
Where [3] appears, read: read-out: serum LDL-C lowering effect (suppression rate of an increase in serum LDL-C concentration).
Where [4] appears, read: read-out: serum TC lowering effect (suppression rate of an increase in serum TC concentration).
Setting [5] is: read-out: liver TC lowering effect (suppression rate of an increase in liver TC concentration).

Turning to `O=C1[C@H](SC[C@H](O)c2ccc(F)cc2)[C@@H](c2ccc(O)cc2)N1c1ccc(-c2cccnc2)c(F)c1` [Example 36, (3R,4R)-3-[(2R)-2-(4-fluorophenyl)-2-hydroxyethylthio]-1-[3-fluoro-4-(pyridin-3-yl)phenyl]-4-(4-hydroxyphenyl)azetidin-2-one], the inhibition at 10 µM in the test with Caco-2 cells is at least 50%.

Take `O=C1[C@H](SC[C@H](O)c2ccc(F)cc2)[C@@H](c2ccc(O)c(Cl)c2)N1c1ccc(-c2cccnc2)cc1` [Example 39, (3R,4R)-3-[(2R)-2-(4-fluorophenyl)-2-hydroxyethylthio]-4-(3-chloro-4-hydroxyphenyl)-1-[4-(pyridin-3-yl)phenyl]azetidin-2-one]: the inhibition at 10 µM in the test with Caco-2 cells was at least 50%.

For `CN(C)c1ccc(-c2ccc(N3C(=O)[C@H](SC[C@H](O)c4ccc(Cl)cc4)[C@H]3c3ccc(O)cc3)cc2)cn1` [Example 88, (3R,4R)-3-[(2R)-2-(4-chlorophenyl)-2-hydroxyethylthio]-1-[4-(6-dimethylaminopyridin-3-yl)phenyl]-4-(4-hydroxyphenyl)azetidin-2-one], in the test with Caco-2 cells (concentration of 12.5 μM), the inhibition at 12.5 µM is at least 60%.

On to `COc1cnccc1-c1ccc(N2C(=O)[C@H](SC[C@H](O)c3ccc(F)cc3)[C@H]2c2ccc(O)cc2)cc1` [Example 23, (3R,4R)-3-[(2R)-2-(4-fluorophenyl)-2-hydroxyethylthio]-4-(4-hydroxyphenyl)-1-[4-(3-methoxypyridin-4-yl)phenyl]azetidin-2-one], for which the inhibition at 10 µM with Caco-2 cells was at least 50%.

For the compound `O=C1[C@H](SC[C@H](O)c2ccc(F)cc2)[C@@H](c2ccc(O)cc2)N1c1ccc(-c2ccncc2)cc1` [Example 11, (3R,4R)-3-[(2R)-2-(4-fluorophenyl)-2-hydroxyethylthio]-4-(4-hydroxyphenyl)-1-[4-(pyridin-4-yl)phenyl]azetidin-2-one], in the test on Caco-2 cells, the inhibition at 10 µM is at least 50%.

Consider `O=C1[C@H](SC[C@H](O)c2ccc(C(F)(F)F)cc2)[C@@H](c2ccc(O)cc2)N1c1ccc(-c2cccnc2)cc1` [Example 43, (3R,4R)-3-{(2R)-2-hydroxy-2-[4-(trifluoromethyl)phenyl]ethylthio}-4-(4-hydroxyphenyl)-1-[4-(pyridin-3-yl)phenyl]azetidin-2-one], for which the inhibition at 10 µM in the test with Caco-2 cells was at least 50%.

`O=Cc1cc(-c2ccc(N3C(=O)[C@H](SC[C@H](O)c4ccc(F)cc4)[C@H]3c3ccc(O)cc3)cc2)cs1` [Example 67, 4-(4-{(3R,4R)-3-[(2R)-2-(4-fluorophenyl)-2-hydroxyethylthio]-4-(4-hydroxyphenyl)-2-oxoazetidinyl}phenyl)thiophene-2-carbaldehyde]: the inhibition in vivo at 0.1 mg/kg in test [1] (setting [2]) is at least 20%.

Turning to `O=C1[C@H](SC[C@H](O)c2ccc(Cl)cc2)[C@@H](c2ccc(O)cc2)N1c1ccc(-c2cnccn2)cc1` [Example 104, (3R,4R)-3-[(2R)-2-(4-chlorophenyl)-2-hydroxyethylthio]-4-(4-hydroxyphenyl)-1-[4-(pyrazin-2-yl)phenyl]azetidin-2-one], the inhibition in vivo at 0.01 mg/kg in test [1] (setting [3]) and in test [1] (setting [4]) was at least 30% each time. The inhibition in vivo at 0.1 mg/kg in test [1] (setting [5]) is at least 50%.

With `O=C1[C@H](SC[C@H](O)c2ccc(F)cc2)[C@@H](c2ccc(O)cc2O)N1c1ccc(-c2cncc(C(F)(F)F)c2)cc1` [Example 76, (3R,4R)-3-[(2R)-2-(4-fluorophenyl)-2-hydroxyethylthio]-4-(2,4-dihydroxyphenyl)-1-[4-(5-trifluoromethylpyridin-3-yl)phenyl]azetidin-2-one], in test [1] (setting [4]), the inhibition in vivo at 0.01 mg/kg was at least 30%.

`O=C1[C@H](SC[C@H](O)c2ccccc2F)[C@@H](c2ccc(O)cc2)N1c1ccc(-c2cccnc2)cc1` [Example 77, (3R,4R)-3-[(2R)-2-(2-fluorophenyl)-2-hydroxyethylthio]-4-(4-hydroxyphenyl)-1-[4-(pyridin-3-yl)phenyl]azetidin-2-one]: the inhibition in vivo at 0.1 mg/kg in test [1] (setting [2]) is at least 20%.

For the compound `Cc1cncc(-c2ccc(N3C(=O)[C@H](SC[C@H](O)c4ccc(Cl)cc4)[C@H]3c3ccc(O)cc3O)cc2)c1` [Example 97, (3R,4R)-3-[(2R)-2-(4-chlorophenyl)-2-hydroxyethylthio]-4-(2,4-dihydroxyphenyl)-1-[4-(5-methylpyridin-3-yl)phenyl]azetidin-2-one], the inhibition in vivo at 0.1 mg/kg in test [1] (setting [3]) and in test [1] (setting [4]) was at least 50% in each case.

Turning to `O=C1[C@H](SC[C@H](O)c2ccc(Cl)cc2)[C@@H](c2ccc(O)cc2)N1c1ccc(-c2cncc(F)c2)cc1` [Example 70, (3R,4R)-3-[(2R)-2-(4-chlorophenyl)-2-hydroxyethylthio]-1-[4-(5-fluoropyridin-3-yl)phenyl]-4-(4-hydroxyphenyl)azetidin-2-one], the inhibition in vivo at 0.01 mg/kg in test [1] (setting [3]) and in test [1] (setting [4]) was at least 30% each time. Besides, the inhibition in vivo at 0.1 mg/kg in test [1] (setting [5]) was at least 50%.

Regarding `Cc1cncc(-c2ccc(N3C(=O)[C@H](SC[C@H](O)c4ccc(F)cc4)[C@H]3c3ccc(O)cc3O)cc2)c1` [Example 93, (3R,4R)-3-[(2R)-2-(4-fluorophenyl)-2-hydroxyethylthio]-4-(2,4-dihydroxyphenyl)-1-[4-(5-methylpyridin-3-yl)phenyl]azetidin-2-one], the inhibition in vivo at 0.01 mg/kg in test [1] (setting [3]) and in test [1] (setting [4]) was at least 30% each time. The inhibition in vivo at 0.1 mg/kg in test [1] (setting [2]) was at least 20%.

Turning to `O=C1[C@H](SC[C@H](O)c2ccc(Cl)cc2)[C@@H](c2ccc(O)cc2)N1c1ccc(-c2cncnc2)cc1` [Example 69, (3R,4R)-3-[(2R)-2-(4-chlorophenyl)-2-hydroxyethylthio]-4-(4-hydroxyphenyl)-1-[4-(pyrimidin-5-yl)phenyl]azetidin-2-one], the inhibition in vivo at 0.01 mg/kg in test [1] (setting [3]) and in test [1] (setting [4]) was at least 30% each time.

In the case of `O=C1[C@H](SC[C@H](O)c2ccc(F)cc2)[C@@H](c2ccc(O)cc2O)N1c1ccc(-c2cncc(F)c2)cc1` [Example 73, (3R,4R)-3-[(2R)-2-(4-fluorophenyl)-2-hydroxyethylthio]-4-(2,4-dihydroxyphenyl)-1-[4-(5-fluoropyridin-3-yl)phenyl]azetidin-2-one], in test [1] (setting [4]), the inhibition in vivo at 0.01 mg/kg is at least 30% and the inhibition in vivo at 0.1 mg/kg was at least 50%. In test [1] (setting [3]), the inhibition in vivo at 0.1 mg/kg was at least 50%.
